Source: patent US20250248431A1, “AGENT FOR ENHANCING SALTINESS OR SUPRESSING OFF-FLAVOR” (AJINOMOTO CO., INC., priority 2022, published 2025)

Tests used:
[1] = Test 9: sensory evaluation of saltiness intensity, meatballs; type: in vivo; details: effect if average score 1 point or more
Excerpt: (§1) Meatballs were produced as evaluation samples by the following steps (1) to (6).
(§2) (1) Commercially available ground pork, sodium chloride (manufactured by Naikai Salt Industries Co., Ltd.), and potassium chloride (manufactured by Uji Pharmaceutical Co., Ltd.) were mixed in the ratios shown in Table 25 below, and the mixture was stirred in a stand mixer (“Kitchen Aid”, model: KSM5WH, manufactured by FMI Corporation) until the entire mixture was uniformly mixed. The speed scale of the stand mixer was set to “1”. (2) To the mixture obtained in the above-mentioned (1) were added finely chopped onion, water, salad oil (manufactured by J-OIL MILLS, INC.), potato starch (manufactured by Minami-Tokachi Rationalized Potato Starch Factory), and β-caryophyllene solution or β-caryophyllene oxide solution in the ratios shown in Table 25 below, and the mixture was stirred in the above-mentioned stand mixer (speed scale setting: 1) until the entire mixture was uniformly mixed. The β-caryophyllene solution was prepared by dissolving β-caryophyllene (manufactured by Sigma-Aldrich) in propylene glycol to a concentration of 1000 ppm by weight, and the β-caryophyllene oxide solution was prepared by dissolving β-caryophyllene oxide (manufactured by Penta Manufacturing Company) in propylene glycol to a concentration of 1000 ppm by weight. […]

[2] = Test 9: sensory evaluation of off-taste level, meatballs; type: in vivo; details: effect if average score 1 point or more
Excerpt: as §1, §2

Structure (SMILES): C=C1CC[C@H]2O[C@]2(C)CC[C@@H]2[C@@H]1CC2(C)C [β-caryophyllene oxide]
- saltiness enhancing effect [1]: can enhance the saltiness
- off-taste suppression effect [2]: suppress the off-taste of off-taste substances
